# Tests used:
# GPx activity [1] = assay: GPx activity in eye and hippocampus homogenate of diabetic mice; format: in vivo
# Protocol: (§1) Male albino mice were used throughout the study, housed in a environmentally regulated room on a dark-light cycle of 12 hours with free access to food and water. Principles of laboratory animal care (NIH publication no. 85-23, revised 1985) were followed, as well as specific Spanish regulations. Animals were made diabetic with a single subcutaneous injection of 200 mg alloxan/kg body weight (66 mg/ml) in 0.1 M citrate buffer, pH 4.5, at day 0 of the experiment. Control mice were injected with the same volume of vehicle also at day 0 of the experiment. Mice were identified as diabetic on the basis of blood glucose levels (higher than 16 mM at least 4 days after alloxan treatment). Animals were divided into subgroups as required by the experiment (control, control+lutein, diabetic, diabetic+lutein, diabetic+insulin, diabetic+insulin+lutein). […] Insulin treated animals were injected daily with 500 mU/g body weight since day 4 until the end of the experiment. Mice were killed by cervical dislocation on day 14, and hippocampus and retina were removed and homogenized in pre-chilled 0.2 M potassium phosphate buffer, pH 7.0. These homogenates were used to assay protein, GPx activity and MDA and GSH concentrations. Samples were kept frozen (−80° C.) until biochemical assays were performed. Blood was taken from the tail vein daily to assay blood glucose levels. Glycated hemoglobin was determined in blood samples obtained by heart puncture immediately before killing the animals. GPx activity was assayed as reported by Lawrence et al. (1978) towards hydrogen peroxide. The disappearance of NADPH was followed spectrophotometrically at 340 nm. The reaction mixture consisted of 240 mU/ml of glutathione disulfide reductase, 1 mM GSH, 0.15 mM NADPH in 0.1 M potassium phosphate buffer, pH 7.0, containing 1 mM EDTA and 1 mM sodium azide; 50 μl sample were added to this mixture and allowed to equilibrate at 37° C. for 3 min. reaction was started by the addition of 1.5 mM hydrogen peroxide to adjust the final volume of the assay mixture to 1 ml.
# GPx activity [2] = settings: diabetic animals; Miranda et al., 2004; cited from earlier work
# alloxan diabetic mice [3] = assay: Hyperglycemic status (blood glucose) of alloxan diabetic mice; format: in vivo; settings: for glycemia: diabetic mice
# Protocol: as §1, with “animals.” for “animals. GPx activity was assayed as reported by Lawrence et al. (1978) towards hydrogen peroxide. The disappearance of NADPH was followed spectrophotometrically at 340 nm. The reaction mixture consisted of 240 mU/ml of glutathione disulfide reductase, 1 mM GSH, 0.15 mM NADPH in 0.1 M potassium phosphate buffer, pH 7.0, containing 1 mM EDTA and 1 mM sodium azide; 50 μl sample were added to this mixture and allowed to equilibrate at 37° C. for 3 min. reaction was started by the addition of 1.5 mM hydrogen peroxide to adjust the final volume of the assay mixture to 1 ml.”
# alloxan diabetic mice [4] = assay: Morris water maze (spatial learning and memory) in diabetic mice; format: in vivo
# Protocol: Male albino mice were used throughout the study, housed in a environmentally regulated room on a dark-light cycle of 12 hours with free access to food and water. Principles of laboratory animal care (NIH publication no. 85-23, revised 1985) were followed, as well as specific Spanish regulations. Animals were made diabetic with a single subcutaneous injection of 200 mg alloxan/kg body weight (66 mg/ml) in 0.1 M citrate buffer, pH 4.5, at day 0 of the experiment. Control mice were injected with the same volume of vehicle also at day 0 of the experiment. Mice were identified as diabetic on the basis of blood glucose levels (higher than 16 mM at least 4 days after alloxan treatment). Animals were divided into subgroups as required by the experiment (control, control+lutein, diabetic, diabetic+lutein, diabetic+insulin, diabetic+insulin+lutein). Lutein was administered daily at a dose of 0.2 mg/kg p.o since day 4 after alloxan or citrate buffer injection until the end of the experiment. […] Glycated hemoglobin was determined in blood samples obtained by heart puncture immediately before killing the animals. […] We measured the duration from the time the mouse was dropped into the maze to the time the mouse climbed onto the platform (latency time). The latency was recorded manually using a stopwatch. […] The percentage of time spent in each of the pool quadrants was also recorded.
compound,measurement,setting,value
CC1=C[C@H](O)CC(C)(C)[C@H]1/C=C/C(C)=C/C=C/C(C)=C/C=C/C=C(C)/C=C/C=C(C)/C=C/C1=C(C)C[C@@H](O)CC1(C)C [Lutein],retinal GPx activity,"GPx activity [1]; eye homogenate without lens, lutein 100 mg/kg p.o. or insulin 500 mU/g s.c. on days 4-13",protected
same,GPx activity in hippocampus homogenate,GPx activity [1]; lutein 0.2 mg/kg p.o. or insulin 500 mU/g s.c. on days 4-13,restored
same,glutathione peroxidase activity of the retinas,GPx activity [2],restored
same,hyperglycemic status,"alloxan diabetic mice [3]; alloxan diabetic mice, fourteen days after alloxan injection",did not alter
same,glycemia,alloxan diabetic mice [3]; lutein 0.2 mg/kg p.o. on days 4-13 (hippocampus section),no effect
same,glycemia,alloxan diabetic mice [3]; lutein 100 mg/kg p.o. on days 4-13 (retina section),no effect
same,escape latencies in the Morris water maze,alloxan diabetic mice [4],diminished

# Source: US20060205826A1, “Method of using carotenoids in the prevention of cognitive decline and for other neuroprotection functions” (priority 2005, published 2006)
